In PubChem BioAssay (NCI):
Several values for one entry are separate records, joined by “and”; a condition that tells them apart may be missing. Identical values can stand only once.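 Five compound concentrations were applied to cells in 96-well plates for 48 hours; endpoints were derived by simple linear interpolation of the resulting dose-response curve. GI50 = concentration required for 50% inhibition of growth. The concentration for full growth arrest is given as TGI.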

How the values were obtained:
Assay in all cases: DTP human tumour cell line panel, 48 h
OVCAR-3 ovarian = test system: OVCAR-3 ovarian
OVCAR-5 ovarian = test system: OVCAR-5 ovarian
UO-31 renal = test system: UO-31 renal
786-0 renal = test system: 786-0 renal
SK-MEL-2 melanoma = test system: SK-MEL-2 melanoma
SK-MEL-5 melanoma = test system: SK-MEL-5 melanoma
MOLT-4 leukemia = test system: MOLT-4 leukemia
T-47D breast = test system: T-47D breast
DU-145 prostate = test system: DU-145 prostate
IGROV1 ovarian = test system: IGROV1 ovarian

SMILES | TGI (OVCAR-3 ovarian) | TGI (OVCAR-5 ovarian) | TGI (UO-31 renal) | TGI (786-0 renal) | TGI (SK-MEL-2 melanoma) [µM] | TGI (SK-MEL-5 melanoma) | TGI (MOLT-4 leukemia) | TGI (T-47D breast) | TGI (DU-145 prostate) | TGI (IGROV1 ovarian) | GI50 (OVCAR-3 ovarian) [µM] | GI50 (OVCAR-5 ovarian) [µM] | GI50 (UO-31 renal) [µM] | GI50 (786-0 renal) [µM] | GI50 (SK-MEL-2 melanoma) [µM] | GI50 (SK-MEL-5 melanoma) [µM] | GI50 (MOLT-4 leukemia) [µM] | GI50 (T-47D breast) [µM] | GI50 (DU-145 prostate) [µM] | GI50 (IGROV1 ovarian) [µM]
CN(C)Cc1ccc(C(C)(C)C)cc1-c1cc(C(C)(C)C)ccc1CN(C)C | > 100 µM | > 100 µM | > 100 µM | > 100 µM | > 100 | > 100 µM | > 100 µM | > 100 µM | > 100 µM | > 100 µM | – | – | – | – | – | – | – | – | – | –
COc1ccc(-c2[nH]nc(N)c2-c2cc(OC)c3c(c2)OCO3)cc1 | 6.05 µM | > 100 µM | 69.7 µM | > 100 µM | 6.42 | 8.97 µM | 37.5 µM | > 100 µM | > 100 µM | 70.5 µM | 2.48 | 16 | 4.35 | 7.82 | 2.81 | 2.85 | 3.73 | 6.52 | 5.6 | 8.51
C[C@@H](NC(=O)c1ncnc(N)c1Cl)c1ncc(C(=O)Nc2cc(C(F)(F)F)c(Cl)cn2)s1 | 70 µM | > 90.5 µM | 44.4 µM | > 100 µM | 8.04 | 24.1 µM | 68.7 µM | > 83.8 µM | > 82.7 µM | 39.6 µM | 24.6 | 5.88 | 8.98 | 36.3 | 2.08 | 8.91 | 23 | 24.2 | 26.7 | 10.8
CCN(CC)CCC(CNc1ccnc2cc(Cl)ccc12)c1ccccc1 (stereo not drawn) | > 100 µM | 73.3 µM | 14.3 µM | 13.5 µM | 4.06 | 3.07 µM | 58.2 µM | 8.08 µM | > 100 µM | 55.7 µM | 14.9 | 16.9 | 2.72 | 3.69 | 1.95 | 1.69 | 4.66 | 2.85 | 32.9 | 7.98
O=C1C=CC(=Nc2cccc3c(N=C4C=CC(=O)O4)cccc23)O1 | > 100 µM | > 100 µM | > 100 µM | 34.5 µM | > 100 | > 100 µM | 19.8 µM | > 100 µM | > 100 µM | > 100 µM | – | – | – | – | – | – | – | – | – | –
COc1ccc2nc3cc([N+](=O)[O-])ccc3c(NNc3ccccc3)c2c1 | 21.9 µM and > 100 µM | 47.2 µM and > 100 µM | 34.3 µM and > 100 µM | 40.4 µM and 44 µM | > 78.9 | 27.3 µM and 40.7 µM | 65.8 µM and 74.4 µM | 35.7 µM and > 100 µM | 77.8 µM and > 100 µM | 68.6 µM and 27.9 µM | 10.2 | 14.9 | 13.1 | – | – | 13.2 | 12.5 | 10.1 | 19.7 | 15.4
CCOC(=O)c1c(NC(=O)c2ccccc2)sc2c3c(ccc12)OCN(C)C3 | 3.26 µM | 3.16 µM | 2.74 µM | 3.4 µM | 4.02 | 3.14 µM | 5.19 µM | 3.78 µM | 3.12 µM | 3.18 µM | 1.79 | 1.71 | 1.36 | 1.79 | 2.07 | 1.74 | 2.09 | 1.76 | 1.67 | 1.64
COc1ccc(C(=O)O[C@H]2[C@H](O[C@H]3[C@@H](O)COC(O[C@H]4C[C@H]5[C@@H]6CC=C7C[C@@H](O)CC[C@]7(C)[C@H]6CC[C@]5(C)[C@H]4[C@H](C)C(=O)CCC(C)C)[C@@H]3OC(C)=O)OC[C@@H](O)[C@@H]2O)c(C)c1 (stereo partly drawn) | 28.9 µM | 26.9 µM | 0.0335 µM | 7.38 µM | 3.23 | 0.0141 µM | 11.2 µM | 19.1 µM | 36.4 µM | 48.9 µM | 11.1 | 0.103 | < 0.01 | < 0.01 | < 0.01 | < 0.01 | < 0.01 | 0.0133 | 1.26 | 0.0723
C/C(=N\n1c(O)c(C#N)cc(C#N)c1=O)c1ccncc1 | > 100 µM | > 100 µM | > 100 µM | > 100 µM | > 100 | > 100 µM | > 100 µM | > 100 µM | > 100 µM | > 100 µM | > 100 | > 100 | > 100 | > 100 | > 100 | > 100 | > 100 | > 100 | > 100 | > 100
Clc1ccc2ncc(-c3cccc(NC4CNC4)n3)n2c1 | > 100 µM | > 100 µM | 88.5 µM | > 100 µM | 37.9 | 76.1 µM | > 100 µM | 73.8 µM | > 100 µM | 44.6 µM | 18.9 | 6.45 | 5.12 | 7.96 | 13.5 | 16.1 | 5.03 | 20.2 | 4.58 | 4.57
O=C1c2cccnc2C(=O)c2c1c(C(=O)NCCn1ccnc1)c1ccccn21 | 7.43 µM | 24.2 µM | 41.6 µM | 37.6 µM | 8.3 | 2.26 µM | 47.9 µM | 11.6 µM | 12.4 µM | 14.2 µM | 2.28 | 4.1 | 4.07 | 5.47 | 2.82 | 1.06 | 3.89 | 3.24 | 3.09 | 3.27
C[C@H](CS)C(=O)N1c2ccccc2C[C@H]1C(=O)O | > 100 µM | > 100 µM | > 100 µM | > 100 µM | > 100 | > 100 µM | > 100 µM | > 100 µM | > 100 µM | > 100 µM | – | – | – | – | – | – | – | – | – | –
N#Cc1ccccc1C#C/C=C\C#CC#C/C=C\C#Cc1ccccc1C#N | 21.4 µM | 26.5 µM | > 100 µM | 42.1 µM | 62.7 | 27.9 µM | 89.3 µM | 46.5 µM | > 100 µM | 91.6 µM | 4.55 | 11.4 | 21.8 | 16.6 | 22.1 | 10.4 | 15.6 | 10.3 | 29.3 | 15
CCN(CC)c1ccc2nc3c4ccccc4c(=O)cc-3n(-c3ccccc3)c2c1 | 3.85 µM | > 100 µM | 3.48 µM | 8.86 µM | 3.95 | 1.74 µM | 7.48 µM | 0.87 µM | 9.75 µM | 2.92 µM | 1.16 | 2.92 | 0.786 | 2.66 | 1.42 | 0.444 | 2.36 | 0.194 | 2.66 | 0.62
